# How the values were obtained:
# lambsquarters = assay: Test C pre-/postemergence test; type: in vivo, Chenopodium album
# Outline: (§1)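 Seeds were planted and treated preemergence with test chemical in a non-phytotoxic solvent mixture containing surfactant. Postemergence applications of the same formulation went onto plants 2 to 18 cm tall (1- to 4-leaf stage). A dash marks no test result.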
# blackgrass = assay: Test C pre-/postemergence test; type: in vivo, Alopecurus myosuroides
# Outline: as §1
# yellow nutsedge = assay: Test C pre-/postemergence test; type: in vivo, Cyperus esculentus
# Outline: as §1
# green foxtail = assay: Test C pre-/postemergence test; type: in vivo, Setaria viridis
# Outline: as §1
# bermudagrass = assay: Test C pre-/postemergence test; type: in vivo, Cynodon dactylon
# Outline: as §1
# redroot pigweed = assay: Test A pre-/postemergence greenhouse test; type: in vivo, Amaranthus retroflexus; settings: for Pigweed plant response rating: 0 to 100 scale; for Plant response rating, Pigweed: 0 to 100 scale where 0 is no effect and 100 is complete control
# Outline: (§2)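 Pots of loam–sand soil sown with the test species are sprayed preemergence on the soil surface; emerged seedlings (1–2 leaves, 2–10 cm) are sprayed postemergence at the same time. The vehicle is a non-phytotoxic solvent mixture with surfactant. Injury is scored visually after ~10 d in greenhouse.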
# rice = assay: Test C flooded paddy test; type: in vivo, Oryza sativa; settings: Flood
# Outline: (§3)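 In-water treatment: compound dosed into 3 cm flood over soil, water level unchanged throughout. Controls run alongside; visual assessment at day 13–15.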
# woolly cupgrass = assay: Test C pre-/postemergence test; type: in vivo, Eriochloa villosa
# Outline: as §1
# morningglory = assay: Test A pre-/postemergence greenhouse test; type: in vivo, Ipomoea spp.; settings: for Morningglory plant response rating: 0 to 100 scale; for Plant response rating, Morningglory: 0 to 100 scale where 0 is no effect and 100 is complete control
# Outline: as §2
# wild oat = assay: Test C pre-/postemergence test; type: in vivo, Avena fatua
# Outline: as §1
# catchweed bedstraw = assay: Test C pre-/postemergence test; type: in vivo, Galium aparine
# Outline: as §1
# duck salad = assay: Test C flooded paddy test; type: in vivo, Heteranthera limosa; settings: Flood
# Outline: as §3
# soybean = assay: Test C pre-/postemergence test; type: in vivo, Glycine max
# Outline: as §1
# downy brome = assay: Test C pre-/postemergence test; type: in vivo, Bromus tectorum
# Outline: as §1
# cocklebur = assay: Test C pre-/postemergence test; type: in vivo, Xanthium strumarium
# Outline: as §1
# kochia = assay: Test C pre-/postemergence test; type: in vivo, Kochia scoparia
# Outline: as §1
# [1] = 31 g ai/ha, Preemergence, scale 0 to 100
# [2] = 62 g ai/ha, preemergence, scale 0 (no effect) to 100 (complete control)
# [3] = preemergence, 125 g ai/ha, scale 0 (no effect) to 100 (complete control)
# [4] = Postemergence, 125 g ai/ha, 0 is no effect, 100 is complete control
# [5] = Postemergence, 500 g ai/ha, 0 is no effect, 100 is complete control
# [6] = Preemergence, 125 g ai/ha, 0 no effect, 100 complete control
# [7] = 31 g ai/ha, scale 0 to 100 (0 no effect, 100 complete control)
# [8] = 62 g ai/ha, scale 0 to 100, 0 no effect, 100 complete control, 13 to 15 days
# [9] = 125 g ai/ha, scale 0 to 100, 0 no effect, 100 complete control, 13 to 15 days
# [10] = 250 g ai/ha, scale 0 to 100 (0 no effect, 100 complete control)
# [11] = 62 g ai/ha, Preemergence, scale 0 to 100
# [12] = 125 g ai/ha, preemergence, scale 0 (no effect) to 100 (complete control)
# [13] = Preemergence, 31 g ai/ha, scale 0 to 100 (0 no effect, 100 complete control)
# [14] = preemergence, 250 g ai/ha, scale 0 (no effect) to 100 (complete control)
# [15] = 250 g ai/ha, scale 0 to 100, 0 no effect, 100 complete control, 13 to 15 days
smiles,measurement,setting,value
Cn1nc(C(F)(F)F)c(C[S+]([O-])c2cccc[n+]2[O-])c1Cl (stereo not shown) [Compound 8],Lambsquarters plant response rating,lambsquarters; [1],80
same,Lambsquarters plant response rating,lambsquarters; [2],98
same,"Plant response rating (0 to 100), Lambsquarters","lambsquarters; Preemergence, 250 g ai/ha",100
same,Lambsquarters plant response rating,lambsquarters; [3],100
same,Blackgrass plant response rating,blackgrass; [1],0
same,Blackgrass plant response rating,blackgrass; [2],0
same,"Plant response rating (0 to 100), Blackgrass","blackgrass; Preemergence, 250 g ai/ha",100
same,Blackgrass plant response rating,blackgrass; [3],100
same,"Nutsedge, Yellow plant response rating",yellow nutsedge; [1],60
same,"Nutsedge, Yellow plant response rating",yellow nutsedge; [2],80
same,"Plant response rating (0 to 100), Nutsedge, Yellow","yellow nutsedge; Preemergence, 250 g ai/ha",100
same,"Nutsedge, Yellow plant response rating",yellow nutsedge; [3],100
same,"Foxtail, Green plant response rating",green foxtail; [1],100
same,"Foxtail, Green plant response rating",green foxtail; [2],100
same,"Plant response rating (0 to 100), Foxtail, Green","green foxtail; Preemergence, 250 g ai/ha",100
same,"Foxtail, Green plant response rating",green foxtail; [3],100
same,Bermudagrass plant response rating,bermudagrass; [1],80
same,Bermudagrass plant response rating,bermudagrass; [2],100
same,"Plant response rating (0 to 100), Bermudagrass","bermudagrass; Preemergence, 250 g ai/ha",100
same,Bermudagrass plant response rating,bermudagrass; [3],100
same,Pigweed plant response rating,redroot pigweed; [4],20
same,Pigweed plant response rating,redroot pigweed; [5],60
same,Pigweed plant response rating,redroot pigweed; [6],100
same,"Plant response rating, Pigweed","redroot pigweed; Preemergence, 500 g ai/ha",100
same,"Plant response rating, Rice",rice; [7],0
same,"Plant response rating, Rice",rice; [8],0
same,"Plant response rating, Rice",rice; [9],0
same,"Plant response rating, Rice",rice; [10],20
same,"Cupgrass, Woolly plant response rating",woolly cupgrass; [1],70
same,"Cupgrass, Woolly plant response rating",woolly cupgrass; [2],98
same,"Plant response rating (0 to 100), Cupgrass, Woolly","woolly cupgrass; Preemergence, 250 g ai/ha",100
same,"Cupgrass, Woolly plant response rating",woolly cupgrass; [3],100
same,Morningglory plant response rating,morningglory; [4],60
same,Morningglory plant response rating,morningglory; [5],70
same,Morningglory plant response rating,morningglory; [6],90
same,"Plant response rating, Morningglory","morningglory; Preemergence, 500 g ai/ha",90
same,"Oat, Wild plant response rating",wild oat; [1],0
same,"Oat, Wild plant response rating",wild oat; [2],20
same,"Plant response rating (0 to 100), Oat, Wild","wild oat; Preemergence, 250 g ai/ha",60
same,"Oat, Wild plant response rating",wild oat; [3],40
same,Galium plant response rating,catchweed bedstraw; [1],0
same,Galium plant response rating,catchweed bedstraw; [2],100
same,Galium plant response rating,catchweed bedstraw; [3],100
same,"Plant response rating, Ducksalad",duck salad; [7],0
same,"Plant response rating, Ducksalad",duck salad; [8],0
same,"Plant response rating, Ducksalad",duck salad; [9],50
same,"Plant response rating, Ducksalad",duck salad; [10],90
same,Soybean plant response rating,soybean; [1],0
same,Soybean plant response rating,soybean; [2],0
same,"Plant response rating (0 to 100), Soybean","soybean; Preemergence, 250 g ai/ha",90
same,Soybean plant response rating,soybean; [3],80
same,"Bromegrass, Downy plant response rating",downy brome; [1],0
same,"Bromegrass, Downy plant response rating",downy brome; [2],0
same,"Plant response rating (0 to 100), Bromegrass, Downy","downy brome; Preemergence, 250 g ai/ha",85
same,"Bromegrass, Downy plant response rating",downy brome; [3],80
same,Cocklebur plant response rating,cocklebur; [1],0
same,Cocklebur plant response rating,cocklebur; [2],0
same,"Plant response rating (0 to 100), Cocklebur","cocklebur; Preemergence, 250 g ai/ha",5
same,Cocklebur plant response rating,cocklebur; [3],0
same,Kochia plant response rating,kochia; [1],40
same,Kochia plant response rating,kochia; [2],45
same,"Plant response rating (0 to 100), Kochia","kochia; Preemergence, 250 g ai/ha",100
same,Kochia plant response rating,kochia; [3],100
Cn1nc(C(F)(F)F)c(C[S+]([O-])c2cc(F)cc[n+]2[O-])c1Cl (racemic) [Compound 42],Lambsquarters plant response rating,lambsquarters; [11],100
same,Lambsquarters plant response rating,lambsquarters; [12],100
same,"Plant response rating, Lambsquarters",lambsquarters; [13],80
same,Lambsquarters plant response rating,lambsquarters; [14],100
same,Blackgrass plant response rating,blackgrass; [11],70
same,Blackgrass plant response rating,blackgrass; [12],95
same,"Plant response rating, Blackgrass",blackgrass; [13],70
same,Blackgrass plant response rating,blackgrass; [14],98
same,"Nutsedge, Yellow plant response rating",yellow nutsedge; [11],60
same,"Nutsedge, Yellow plant response rating",yellow nutsedge; [12],85
same,"Plant response rating, Nutsedge, Yellow",yellow nutsedge; [13],0
same,"Nutsedge, Yellow plant response rating",yellow nutsedge; [14],95
same,"Foxtail, Green plant response rating",green foxtail; [11],100
same,"Foxtail, Green plant response rating",green foxtail; [12],100
same,"Plant response rating, Foxtail, Green",green foxtail; [13],98
same,"Foxtail, Green plant response rating",green foxtail; [14],100
same,Bermudagrass plant response rating,"bermudagrass; 62 g ai/ha, Preemergence, scale 0 to 100 (0 no effect, 100 complete control)",100
same,Bermudagrass plant response rating,bermudagrass; [12],100
same,"Plant response rating, Bermudagrass",bermudagrass; [13],70
same,Bermudagrass plant response rating,bermudagrass; [14],100
same,Pigweed plant response rating,redroot pigweed; [4],60
same,Pigweed plant response rating,redroot pigweed; [5],70
same,Pigweed plant response rating,redroot pigweed; [6],100
same,"Plant response rating, Pigweed","redroot pigweed; Preemergence, 500 g ai/ha",100
same,"Plant response rating, Rice",rice; [7],0
same,"Plant response rating, Rice",rice; [8],15
same,"Plant response rating, Rice",rice; [9],25
same,"Plant response rating, Rice",rice; [15],70
same,"Cupgrass, Woolly plant response rating",woolly cupgrass; [11],55
same,"Cupgrass, Woolly plant response rating",woolly cupgrass; [12],85
same,"Plant response rating, Cupgrass, Woolly",woolly cupgrass; [13],35
same,"Cupgrass, Woolly plant response rating",woolly cupgrass; [14],90
same,Morningglory plant response rating,morningglory; [4],40
same,Morningglory plant response rating,morningglory; [5],90
same,Morningglory plant response rating,morningglory; [6],30
same,"Plant response rating, Morningglory","morningglory; Preemergence, 500 g ai/ha",90
same,"Oat, Wild plant response rating",wild oat; [11],5
same,"Oat, Wild plant response rating",wild oat; [12],50
same,"Plant response rating, Oat, Wild",wild oat; [13],0
same,"Oat, Wild plant response rating",wild oat; [14],90
same,Galium plant response rating,catchweed bedstraw; [11],50
same,Galium plant response rating,catchweed bedstraw; [12],100
same,"Plant response rating, Galium",catchweed bedstraw; [13],0
same,Galium plant response rating,catchweed bedstraw; [14],100
same,"Plant response rating, Ducksalad",duck salad; [7],70
same,"Plant response rating, Ducksalad",duck salad; [8],85
same,"Plant response rating, Ducksalad",duck salad; [9],85
same,"Plant response rating, Ducksalad",duck salad; [15],90
same,Soybean plant response rating,soybean; [11],0
same,Soybean plant response rating,soybean; [12],40
same,"Plant response rating, Soybean",soybean; [13],0
same,Soybean plant response rating,soybean; [14],40
same,"Bromegrass, Downy plant response rating",downy brome; [11],15
same,"Bromegrass, Downy plant response rating",downy brome; [12],45
same,"Plant response rating, Bromegrass, Downy",downy brome; [13],10
same,"Bromegrass, Downy plant response rating",downy brome; [14],70
same,Cocklebur plant response rating,cocklebur; [11],0
same,Cocklebur plant response rating,cocklebur; [12],0
same,"Plant response rating, Cocklebur",cocklebur; [13],0
same,Cocklebur plant response rating,cocklebur; [14],50
same,Kochia plant response rating,kochia; [11],100
same,Kochia plant response rating,kochia; [12],100
same,"Plant response rating, Kochia",kochia; [13],100
same,Kochia plant response rating,kochia; [14],100

# — patent US20100298141A1, “SUBSTITUTED PYRIDINE N-OXIDE HERBICIDES” (E. I. DU PONT DE NEMOURS AND COMPANY, priority 2007, published 2010)
